In patent publication US9232792B2, “Method for promoting plant growth” (SUMITOMO CHEMICAL COMPANY, LIMITED, priority 2011, dated 2016):

Columns and labels:
Format in all cases: in vivo
[1] = system: Rice (cultivar: Nipponbare); test: Test Example 3: promotion of root growth in hydroponics of rice; conditions: 1 ppm in hydroponic solution; 3 days germination + 3 days cultivation
Protocol: (§1) Rice (cultivar: Nipponbare)
(§2) DMSO solutions containing each of the present compounds 4 to 8 at 10,000 ppm were prepared. A 1/10,000 volume of each DMSO solution containing each of the present compounds 4 to 8 at 10,000 ppm was added to a Hoagland solution for hydroponics at ¼ concentration (Hoagland and Arnon, California Agricultural Experiment Station 1950 Circular 347 pp. 34) to obtain a solution for hydroponics containing each of the present compounds 4 to 8 at 1 ppm. These solutions were used in the treated-group.
(§3) In a non-treated group, a solution for hydroponics obtained by adding a Hoagland solution for hydroponics at ¼ concentration to a 1/10,000 volume of DMSO was used.
(§4) The rice seeds were immersed in an aqueous solution of 1% sodium hypochlorite for 10 minutes, followed by 70% ethanol solution to sterilize their surfaces. After that, the seeds were washed with distilled water. The sterilized seeds were immersed in each solution for hydroponics containing the test compound at the given concentration, and incubated at a temperature of 28° C. for 3 days under dark conditions to stimulate the germination of the seeds.
(§5) Then, 30 ml of each solution for hydroponics containing the test compound at the given concentration was dispensed into a plastic tube (20 mm in diameter×113 mm in height) covered with a cardboard on the lateral surface for blocking a light. A float made of a styrene board and a vinyl mesh was placed on the water surface of each solution for hydroponics, and the rice seeds obtained after the stimulation of germination were placed on the float. The seeds were cultivated for 3 days under the conditions of an illuminance of 4,000 lux at the top of the tube, a temperature of 26° C., a humidity of 50%, and a day length of 16 hours.
The root length of the rice seedlings obtained after the cultivation was measured by using WinRHIZO system (manufactured by REGENT INSTRUMENTS). The average value of the root length in the treated group was calculated from the measurement values of 4 or 5 individuals. As a result, the root length in the treated group, wherein the plants were treated with the present compound 4, 5, 6, 7 or 8 (at a concentration of 1 ppm in each case), was much longer than that in the non-treated group.

[2] = system: Tobacco (Nicotiana benthamiana); test: Test Example 4: reduction of low-temperature stress in hydroponics of tobacco; conditions: 10 ppm in medium; 1.5±1.0° C. for 7 days, then 3 days at 22° C.
Protocol: Tobacco (Nicotiana benthamiana)
DMSO solutions containing each of the present compounds 1 to 4 at a concentration of 10,000 ppm were prepared. A 1/1,000 volume of each DMSO solution was added to a Murashige-and-Skoog medium (a medium containing 2.3 g of a mixture of salts for Murashige-and-Skoog medium (manufactured by Wako. Pure Chemical Industries, Ltd.), 200 mg of myoinositol (manufactured by Sigma-Aldrich), 2 mg of nicotinic acid (manufactured by Wako Pure Chemical Industries, Ltd.), 2 mg of pyridoxine hydrochloride (manufactured by Wako Pure Chemical Industries, Ltd.), 20 mg of thiamine hydrochloride (manufactured by Wako Pure Chemical Industries, Ltd.), 20 g of sucrose (manufactured by Wako Pure Chemical Industries, Ltd.), 1 g of MES (manufactured by DOJINDO LABORATORIES) in 1 L of water, adjusted to pH 5.8) at ½ concentration to obtain a medium containing the test compound at a concentration of 10 ppm. These media were used in the treated-group.
In a non-treated group, a medium obtained by adding a 1/1,000 volume of DMSO to a Murashige-and-Skoog medium at ½ concentration was used.
The seeds of tobacco (Nicotiana benthamiana) were sown on 5 μL of the medium, and incubated at 22° C. overnight. Thereto was added 45 μL of a medium containing each present compound at a concentration of 10 ppm, and cultivated for 7 days under the conditions of an illuminance of 4,000 lux, a temperature of 22° C. and a day length of 16 hours, thereby treating the seedlings of tobacco (Nicotiana benthamiana) with the test compound.
In the non-treated group, 45 μL of a medium obtained by adding a 1/1,000 volume of DMSO to a Murashige-and-Skoog medium at ½ concentration was added, and treated in the same manner as above.
The seedlings of tobacco (Nicotiana benthamiana) treated with the present compounds were cultivated for 7 days under the conditions of an illuminance of 2,000 lux, a temperature of 1.5±1.0° C., and a day length of 16 hours, thereby subjecting to low-temperature stress treatment.
The plants of tobacco (Nicotiana benthamiana) subjected to low-temperature stress treatment was cultivated for 3 days under the conditions of an illuminance of 4,000 lux, a temperature of 22° C., and a day length of 16 hours, and then the green leaf area of the plants was visually evaluated. Completely dead plant was scored as 0, the plant without low-temperature stress treatment was scored as 5, the green area was rated on a 6-point scale in ⅕ increments, and the score of not less than 1 was regarded as effective in reducing the stress. As a result of visual evaluation, the green leaf area of plants in the treated group, wherein the plants were treated with the present compound 1, 2, 3 or 4 was much larger than that in the non-treated group.

[3] = system: Rice (cultivar: Nipponbare); test: Test Example 1: promotion of root growth in hydroponics of rice; conditions: 1 ppm in hydroponic solution; 3 days germination + 3 days cultivation
Protocol: as §1
as §2, with “compounds 1” for “compounds 4”, “to 3” for “to 8”
as §3, §4, §5
The root length of the rice seedlings obtained after the cultivation was measured by using WinRHIZO system (manufactured by REGENT INSTRUMENTS). The average value of the root length in the treated group was calculated from the measurement values of 4 or 5 individuals. […]

| Compound | root length of the rice seedlings vs non-treated group [1] | green leaf area of plants (visual evaluation) vs non-treated group [2] | root length of the rice seedlings vs non-treated group [3] |
| --- | --- | --- | --- |
| laurylammonium 5-(trifluoromethyl)benzo[b]thiophene-2-carboxylate [The present compound 8] | much longer | – | – |
| O=C(O)c1cc2cccc(C(F)(F)F)c2s1 [The present compound 4, 7-(trifluoromethyl)benzo[b]thiophene-2-carboxylic acid] | much longer | much larger | – |
| CC(C)N.O=C(O)c1cc2cc(C(F)(F)F)ccc2s1 [The present compound 7, isopropylammonium 5-(trifluoromethyl)benzo[b]thiophene-2-carboxylate] | much longer | – | – |
| O=C(O)c1cc2c(C(F)(F)F)cccc2s1 [The present compound 3, 4-(trifluoromethyl)benzo[b]thiophene-2-carboxylic acid] | – | much larger | much longer |
| O=C([O-])c1cc2cc(C(F)(F)F)ccc2s1.[Na+] [The present compound 5, sodium 5-(trifluoromethyl)benzo[b]thiophene-2-carboxylate] | much longer | – | – |
| O=C([O-])c1cc2cc(C(F)(F)F)ccc2s1.[K+] [The present compound 6, potassium 5-(trifluoromethyl)benzo[b]thiophene-2-carboxylate] | much longer | – | – |
| O=C(O)c1cc2ccc(C(F)(F)F)cc2s1 [The present compound 2, 6-(trifluoromethyl)benzo[b]thiophene-2-carboxylic acid] | – | much larger | much longer |
